Measurements published in ChEMBL document CHEMBL1201862, “PubChem BioAssay data set” (2004).
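How tested: cells in 96-well plates exposed to compound for 48 hours at five concentrations. GI50 marks 50% less growth.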 Activity calls are given as the source filed them. No stated cut-off is given here; in the data, active = GI50 up to about 1.1 µM and inactive = higher.

How the values were obtained:
Experiment in all cases: growth of human tumour cells (NCI), 48 h
[1] = system: ACHN
[2] = system: M19-MEL
[3] = system: HOP-18
[4] = system: XF498
[5] = system: NCI-H460
[6] = system: LXFL 529
[7] = system: SNB-19
[8] = system: KM-20L2
[9] = system: A549
[10] = system: EKVX
[11] = system: SK-OV-3
[12] = system: HOP-62
[13] = system: HT-29
[14] = system: 786-0
[15] = system: HCT-15
[16] = system: MOLT-4
[17] = system: SN12C
[18] = system: RXF 393
[19] = system: DMS-273
[20] = system: COLO 205
[21] = system: SK-MEL-5
[22] = system: SW-620
[23] = system: NCI-H522
[24] = system: TK-10
[25] = system: HCT-116
[26] = system: SK-MEL-28
[27] = system: SF-539
[28] = system: A498
[29] = system: DMS-114
[30] = system: IGROV-1
[31] = system: CAKI-1
[32] = system: SF-268
[33] = system: NCI-H23
[34] = system: CCRF-CEM
[35] = system: U-251
[36] = system: UO-31
[37] = system: SF-295
[38] = system: DLD-1
[39] = system: OVCAR-8
[40] = system: LOX IMVI
[41] = system: K562
[42] = system: UACC-62
[43] = system: SK-MEL-2
[44] = system: HL-60
[45] = system: OVCAR-5
[46] = system: UACC-257
[47] = system: HCC 2998
[48] = system: SNB-75
[49] = system: RPMI-8226
[50] = system: OVCAR-4
[51] = system: M14
[52] = system: KM12
[53] = system: OVCAR-3
[54] = system: Malme-3M
[55] = system: HOP-92
[56] = system: SNB-78
[57] = system: NCI-H226
[58] = system: SR

Measured: GI50

Cc1nc2ccccc2c(=O)n1/N=C(\N=N\c1ccc(Cl)cc1)c1ccc(N(C)C)cc1
inactive: [1] > 100 µM | [2] > 100 µM | [3] 46 µM | [4] 14.6 µM | [5] 93.8 µM | [6] 47.8 µM | [7] 48 µM | [8] > 100 µM | [9] > 100 µM | [10] > 100 µM | [11] > 100 µM | [12] 66.4 µM | [13] > 100 µM | [14] > 100 µM | [16] 61.1 µM | [17] 56.9 µM | [18] 80.4 µM | [19] 60.1 µM | [20] > 100 µM | [21] 54.6 µM | [22] > 100 µM | [23] 38.7 µM | [24] > 100 µM | [25] 46.1 µM | [26] 26.2 µM | [27] > 100 µM | [28] > 100 µM | [29] 38.9 µM | [30] > 100 µM | [31] > 100 µM | [32] 32.7 µM | [33] 72.4 µM | [34] 81.5 µM | [35] > 10 µM | [36] 21.8 µM | [37] > 100 µM | [38] 71.4 µM | [39] > 100 µM | [40] > 100 µM | [41] 36.6 µM | [42] 70.3 µM
> 100 µM: [15]

C=CCCCCCCCCCP(=O)(c1ccccc1)c1ccc2c(c1)OCCOCCOCCOCCO2 (stereo not drawn)
13.8 µM: [15]
inactive: [43] 18 µM | [1] 16.7 µM | [2] 18.4 µM | [3] 16.3 µM | [4] 18.7 µM | [5] 13.2 µM | [44] 5.18 µM | [7] 13.1 µM | [8] 14.1 µM | [9] 14.6 µM | [10] 19.6 µM | [11] 20.2 µM | [12] 16.6 µM | [13] 12.2 µM | [45] 17.4 µM | [14] 16.3 µM | [16] 9.75 µM | [17] 16.3 µM | [18] 14.2 µM | [19] 15.1 µM | [20] 15.9 µM | [21] 11.3 µM | [46] 16.7 µM | [22] 16 µM | [47] 17.3 µM | [48] 18.5 µM | [23] 12.1 µM | [49] 11.7 µM | [24] 18.4 µM | [25] 10.4 µM | [26] 16.3 µM | [27] 17.3 µM | [28] 14.2 µM | [50] 11.5 µM | [30] 16 µM | [51] > 100 µM | [31] > 100 µM | [32] 15.3 µM | [33] 14.9 µM | [52] 12.8 µM | [53] 7.08 µM | [34] 16.5 µM | [35] 15.9 µM | [36] 10.8 µM | [54] 17.7 µM | [37] 15.2 µM | [38] 13.6 µM | [39] 15.9 µM | [55] > 100 µM | [40] 15.3 µM | [41] 9.42 µM | [42] 15.7 µM | [56] 19.1 µM | [57] 13.7 µM | [58] 7.16 µM

Cc1nc2ccccc2c(=O)n1/N=C(\N=N\c1cccc(Cl)c1)c1ccccc1Cl
inactive: [2] > 100 µM | [3] 1.48 µM | [4] 2.29 µM | [5] 49.9 µM | [6] > 10 µM | [44] > 10 µM | [8] > 100 µM | [9] > 100 µM | [10] 69.8 µM | [11] 25.8 µM | [12] 37.8 µM | [13] > 100 µM | [14] 83 µM | [16] > 10 µM | [17] > 100 µM | [18] 21.7 µM | [19] 50.2 µM | [20] > 10 µM | [21] > 100 µM | [22] > 100 µM | [23] 29 µM | [49] > 100 µM | [24] 49.4 µM | [25] 36 µM | [27] 25.3 µM | [30] > 10 µM | [51] > 100 µM | [31] > 100 µM | [33] 64.9 µM | [34] > 10 µM | [35] 37.9 µM | [36] 99.3 µM | [37] 30.4 µM | [38] 75.5 µM | [39] > 100 µM | [55] 29.9 µM | [40] > 100 µM | [42] > 100 µM
active: [41] 0.57 µM
> 100 µM: [15]
